Measurements reported in patent publication US20240109865A1, “INDAZOLE COMPOUNDS AS KINASE INHIBITORS” (TYRA BIOSCIENCES, INC., priority 2020, published 2024).

How the values were obtained:
Test in all cases: Kinase assay, binding constants (Kd), kinase-tagged T7 phage, qPCR
FGFR1 = FGFR1 (Homo sapiens (Human), UniProt P11362)
Summary of the method: (§1)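 Using T7 phage lysates from BL21-derived E. coli, compounds at 0.9% final DMSO competed for kinase binding to ligand-bearing magnetic beads. After elution, qPCR measured remaining kinase, and Kds were fitted by non-linear least squares with the Hill slope fixed at −1.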

FGFR2 = FGFR2 (Homo sapiens (Human), UniProt P21802)
Sequence of FGFR2 (P21802 22-821): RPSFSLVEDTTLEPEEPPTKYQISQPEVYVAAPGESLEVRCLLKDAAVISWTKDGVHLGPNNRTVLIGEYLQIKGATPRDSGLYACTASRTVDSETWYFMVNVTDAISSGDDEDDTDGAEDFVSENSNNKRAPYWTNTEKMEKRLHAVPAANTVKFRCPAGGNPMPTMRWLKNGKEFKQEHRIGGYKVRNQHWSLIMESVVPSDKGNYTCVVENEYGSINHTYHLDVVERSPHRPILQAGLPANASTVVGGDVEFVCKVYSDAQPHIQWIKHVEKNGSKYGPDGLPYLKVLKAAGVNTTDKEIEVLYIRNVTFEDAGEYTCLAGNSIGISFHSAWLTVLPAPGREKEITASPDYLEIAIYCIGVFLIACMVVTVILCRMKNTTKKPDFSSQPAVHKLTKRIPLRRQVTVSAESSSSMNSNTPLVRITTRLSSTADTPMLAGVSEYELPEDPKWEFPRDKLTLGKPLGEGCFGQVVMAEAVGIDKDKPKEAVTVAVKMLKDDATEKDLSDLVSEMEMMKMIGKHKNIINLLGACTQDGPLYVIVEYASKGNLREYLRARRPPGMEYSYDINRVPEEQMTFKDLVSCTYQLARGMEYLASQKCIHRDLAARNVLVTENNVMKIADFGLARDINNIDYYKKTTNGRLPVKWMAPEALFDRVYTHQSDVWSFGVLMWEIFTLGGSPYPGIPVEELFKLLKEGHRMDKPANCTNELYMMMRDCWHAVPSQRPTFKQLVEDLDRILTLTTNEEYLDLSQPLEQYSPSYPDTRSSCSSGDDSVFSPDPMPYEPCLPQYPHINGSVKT
Summary of the method: as §1

FGFR3 (V555M) = FGFR3 (V555M) (Homo sapiens (Human), UniProt P22607, V555M); conditions: V555M mutant
Sequence of FGFR3 (V555M) (P22607 23-806 V555M): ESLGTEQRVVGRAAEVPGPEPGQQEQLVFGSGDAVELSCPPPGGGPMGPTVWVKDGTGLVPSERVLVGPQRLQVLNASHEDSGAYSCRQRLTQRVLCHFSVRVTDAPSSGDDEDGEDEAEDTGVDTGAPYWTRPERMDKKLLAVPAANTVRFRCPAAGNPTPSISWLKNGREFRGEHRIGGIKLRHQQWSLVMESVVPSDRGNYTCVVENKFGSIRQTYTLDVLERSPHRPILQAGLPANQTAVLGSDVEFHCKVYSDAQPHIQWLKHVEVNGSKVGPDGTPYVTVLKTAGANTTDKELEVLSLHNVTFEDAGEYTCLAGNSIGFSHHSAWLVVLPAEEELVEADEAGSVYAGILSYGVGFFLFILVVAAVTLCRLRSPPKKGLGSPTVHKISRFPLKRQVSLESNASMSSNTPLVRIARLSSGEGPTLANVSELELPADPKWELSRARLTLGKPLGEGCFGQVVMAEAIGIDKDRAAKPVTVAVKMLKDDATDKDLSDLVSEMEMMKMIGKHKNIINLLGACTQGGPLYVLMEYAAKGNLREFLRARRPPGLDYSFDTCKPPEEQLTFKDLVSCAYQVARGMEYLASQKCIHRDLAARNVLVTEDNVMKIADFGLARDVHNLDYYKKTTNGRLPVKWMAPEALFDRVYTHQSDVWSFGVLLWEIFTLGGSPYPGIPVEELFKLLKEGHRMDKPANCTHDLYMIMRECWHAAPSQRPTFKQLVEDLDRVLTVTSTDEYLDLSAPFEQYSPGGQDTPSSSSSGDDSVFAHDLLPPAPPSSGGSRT
Summary of the method: as §1

FGFR3 = FGFR3 (Homo sapiens (Human), UniProt P22607)
Sequence of FGFR3 (P22607 23-806): as the sequence (P22607 23-806 V555M) above, with M533V counted along it
Summary of the method: as §1

FGFR4 = FGFR4 (Homo sapiens (Human), UniProt P22455)
Sequence of FGFR4 (P22455 22-802): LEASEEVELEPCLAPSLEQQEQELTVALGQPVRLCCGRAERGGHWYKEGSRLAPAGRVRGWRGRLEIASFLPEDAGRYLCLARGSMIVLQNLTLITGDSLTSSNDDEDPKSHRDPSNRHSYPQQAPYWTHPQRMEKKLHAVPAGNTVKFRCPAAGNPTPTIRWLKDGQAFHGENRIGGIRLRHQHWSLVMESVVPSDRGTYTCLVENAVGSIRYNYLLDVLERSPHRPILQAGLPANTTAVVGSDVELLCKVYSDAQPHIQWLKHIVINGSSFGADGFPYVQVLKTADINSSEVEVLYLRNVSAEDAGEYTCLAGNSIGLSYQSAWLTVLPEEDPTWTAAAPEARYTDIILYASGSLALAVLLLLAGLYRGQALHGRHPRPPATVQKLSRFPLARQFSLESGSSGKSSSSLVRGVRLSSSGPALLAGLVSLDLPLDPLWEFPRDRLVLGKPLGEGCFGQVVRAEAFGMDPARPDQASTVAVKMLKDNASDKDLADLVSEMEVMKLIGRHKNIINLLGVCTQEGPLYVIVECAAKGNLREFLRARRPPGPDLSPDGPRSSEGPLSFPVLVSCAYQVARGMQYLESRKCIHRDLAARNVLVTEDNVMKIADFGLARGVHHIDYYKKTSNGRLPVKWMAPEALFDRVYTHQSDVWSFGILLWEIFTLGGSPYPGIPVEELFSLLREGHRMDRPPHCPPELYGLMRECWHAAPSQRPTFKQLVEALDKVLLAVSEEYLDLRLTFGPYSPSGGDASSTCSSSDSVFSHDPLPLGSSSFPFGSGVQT
Summary of the method: as §1

Sequence of FGFR1 (P11362 22-822): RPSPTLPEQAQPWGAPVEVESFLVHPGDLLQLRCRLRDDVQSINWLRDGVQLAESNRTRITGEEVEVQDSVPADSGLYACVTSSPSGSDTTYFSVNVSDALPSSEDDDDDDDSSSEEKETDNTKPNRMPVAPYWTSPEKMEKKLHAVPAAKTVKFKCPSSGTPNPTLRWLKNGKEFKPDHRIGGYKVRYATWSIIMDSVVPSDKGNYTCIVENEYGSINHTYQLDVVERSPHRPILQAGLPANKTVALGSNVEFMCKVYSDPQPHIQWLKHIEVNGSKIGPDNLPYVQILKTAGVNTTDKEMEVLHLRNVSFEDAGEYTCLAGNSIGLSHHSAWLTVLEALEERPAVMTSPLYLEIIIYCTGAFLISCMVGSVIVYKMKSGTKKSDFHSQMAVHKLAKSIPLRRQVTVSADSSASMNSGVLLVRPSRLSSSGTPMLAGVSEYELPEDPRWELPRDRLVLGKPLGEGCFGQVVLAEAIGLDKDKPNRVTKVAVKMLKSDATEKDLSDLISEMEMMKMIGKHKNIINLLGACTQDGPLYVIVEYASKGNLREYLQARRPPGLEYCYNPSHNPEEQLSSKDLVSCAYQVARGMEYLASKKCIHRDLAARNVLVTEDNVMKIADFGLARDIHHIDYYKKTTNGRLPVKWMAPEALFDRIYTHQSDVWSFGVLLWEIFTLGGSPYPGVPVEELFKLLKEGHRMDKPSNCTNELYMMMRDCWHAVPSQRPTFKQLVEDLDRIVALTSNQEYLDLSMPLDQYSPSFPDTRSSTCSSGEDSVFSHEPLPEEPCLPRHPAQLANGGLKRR

SMILES | Kd (FGFR1) [nM] | Kd (FGFR2) [nM] | Kd (FGFR3 (V555M)) [nM] | Kd (FGFR3) [nM] | Kd (FGFR4) [nM]
Cc1cc2[nH]nc(-c3cnc(N4CC5(C4)CN(S(C)(=O)=O)C5)c(C#N)c3)c2cc1O[C@H](C)c1c(Cl)cncc1Cl [Example 352, (R)-5-(5-(1-(3,5-dichloropyridin-4-yl)ethoxy)-6-methyl-1H-indazol-3-yl)-2-(6-(methylsulfonyl)-2,6-diazaspiro[3.3]heptan-2-yl)nicotinonitrile] | 20 to 100 | 100 to 300 | 1 to 20 | 1 to 20 | 1 to 20
C[C@@H](Oc1ccc2[nH]nc(-c3cnc(N4CC(F)(F)C4)c(C#N)c3)c2c1)c1c(Cl)cncc1Cl [Example 353, (R)-5-(5-(1-(3,5-dichloropyridin-4-yl)ethoxy)-1H-indazol-3-yl)-2-(3,3-difluoroazetidin-1-yl)nicotinonitrile] | > 300 | > 300 | 20 to 100 | 20 to 100 | 1 to 20
C[C@@H](Oc1cc2c(-c3cnc(N4CC5(C4)CN(S(C)(=O)=O)C5)c(C#N)c3)n[nH]c2cc1F)c1c(Cl)cncc1Cl [Example 355, (R)-5-(5-(1-(3,5-dichloropyridin-4-yl)ethoxy)-6-fluoro-1H-indazol-3-yl)-2-(6-(methylsulfonyl)-2,6-diazaspiro[3.3]heptan-2-yl)nicotinonitrile] | 1 to 20 | 20 to 100 | 1 to 20 | 1 to 20 | 1 to 20
C[C@@H](Oc1ccc2[nH]nc(-c3cnc(N4CC5(C4)CN(S(C)(=O)=O)C5)c(CN(C)C)c3)c2c1)c1c(Cl)cncc1Cl [Example 356, (R)-1-(5-(5-(1-(3,5-dichloropyridin-4-yl)ethoxy)-1H-indazol-3-yl)-2-(6-(methylsulfonyl)-2,6-diazaspiro[3.3]heptan-2-yl)pyridin-3-yl)-N,N-dimethylmethanamine] | > 300 | > 300 | 100 to 300 | > 300 | 20 to 100
COc1cc2[nH]nc(-c3cnc(N4CC5(C4)CN(S(C)(=O)=O)C5)c(CN(C)C)c3)c2cc1O[C@H](C)c1c(Cl)cncc1Cl [Example 357, (R)-1-(5-(5-(1-(3,5-dichloropyridin-4-yl)ethoxy)-6-methoxy-1H-indazol-3-yl)-2-(6-(methylsulfonyl)-2,6-diazaspiro[3.3]heptan-2-yl)pyridin-3-yl)-N,N-dimethylmethanamine] | > 300 | > 300 | 20 to 100 | 100 to 300 | 1 to 20
C[C@@H](Oc1cc2c(-c3cnc(N4CC5(C4)CN(S(C)(=O)=O)C5)c(C#N)c3)n[nH]c2cc1Cl)c1c(Cl)cncc1Cl [Example 359, (R)-5-(6-chloro-5-(1-(3,5-dichloropyridin-4-yl)ethoxy)-1H-indazol-3-yl)-2-(6-(methylsulfonyl)-2,6-diazaspiro[3.3]heptan-2-yl)nicotinonitrile] | 20 to 100 | 20 to 100 | > 300 | 1 to 20 | 1 to 20
COc1cc2[nH]nc(-c3cnc(N4CCC4)c(C#N)c3)c2cc1O[C@H](C)c1c(Cl)cnnc1Cl [Example 360, (R)-2-(azetidin-1-yl)-5-(5-(1-(3,5-dichloropyridazin-4-yl)ethoxy)-6-methoxy-1H-indazol-3-yl)nicotinonitrile] | 100 to 300 | 20 to 100 | > 300 | 20 to 100 | 1 to 20
C[C@@H](Oc1cc2c(-c3cnc(N4CC5(CCCS(=O)(=O)C5)C4)c(C#N)c3)n[nH]c2cc1F)c1c(Cl)cncc1Cl [Example 362] | 20 to 100 | 100 to 300 | 1 to 20 | 1 to 20 | 1 to 20
C[C@@H](Oc1ccc2[nH]nc(-c3cnc(N4CCC4CN(C)C)c(C#N)c3)c2c1)c1c(Cl)cncc1Cl (stereo partly drawn) [Example 363, 5-(5-((R)-1-(3,5-dichloropyridin-4-yl)ethoxy)-1H-indazol-3-yl)-2-(2-((dimethylamino)methyl)azetidin-1-yl)nicotinonitrile] | > 300 | > 300 | > 300 | > 300 | > 300
C[C@@H](Oc1cc2c(-c3cnc(N4CC(C)(C)C4)c(C#N)c3)n[nH]c2cc1Cl)c1c(Cl)cncc1Cl [Example 364, (R)-5-(6-chloro-5-(1-(3,5-dichloropyridin-4-yl)ethoxy)-1H-indazol-3-yl)-2-(3,3-dimethylazetidin-1-yl)nicotinonitrile] | 20 to 100 | 1 to 20 | 1 to 20 | 1 to 20 | 20 to 100
C[C@@H](Oc1cc2c(-c3cnc(N4CCC4)c(CN(C)C)c3)n[nH]c2cc1Cl)c1c(Cl)cncc1Cl [Example 366, (R)-1-(2-(azetidin-1-yl)-5-(6-chloro-5-(1-(3,5-dichloropyridin-4-yl)ethoxy)-1H-indazol-3-yl)pyridin-3-yl)-N,N-dimethylmethanamine] | 100 to 300 | > 300 | 20 to 100 | 20 to 100 | 1 to 20

Next, values leading:

Kd (FGFR1) [nM] | Kd (FGFR2) [nM] | Kd (FGFR3 (V555M)) [nM] | Kd (FGFR3) [nM] | Kd (FGFR4) [nM] | SMILES
20 to 100 | 100 to 300 | 1 to 20 | 1 to 20 | 1 to 20 | C[C@@H](Oc1ccc2[nH]nc(-c3cnc(N4CC[C@@H]4CO)c(C#N)c3)c2c1)c1c(Cl)cncc1Cl [Example 351, 5-(5-((R)-1-(3,5-dichloropyridin-4-yl)ethoxy)-1H-indazol-3-yl)-2-((R)-2-(hydroxymethyl)azetidin-1-yl)nicotinonitrile]
20 to 100 | 20 to 100 | 1 to 20 | 1 to 20 | 1 to 20 | C[C@@H](Oc1ccc2[nH]nc(-c3cnc(N4CC[C@H]4CO)c(C#N)c3)c2c1)c1c(Cl)cncc1Cl [Example 354, 5-(5-((R)-1-(3,5-dichloropyridin-4-yl)ethoxy)-1H-indazol-3-yl)-2-((S)-2-(hydroxymethyl)azetidin-1-yl)nicotinonitrile]
20 to 100 | 100 to 300 | 1 to 20 | 1 to 20 | 1 to 20 | C[C@@H](Oc1ccc2[nH]nc(-c3cnc(N4CC(C)(N)C4)c(C#N)c3)c2c1)c1c(Cl)cncc1Cl [Example 358, (R)-2-(3-amino-3-methylazetidin-1-yl)-5-(5-(1-(3,5-dichloropyridin-4-yl)ethoxy)-1H-indazol-3-yl)nicotinonitrile]
> 300 | 100 to 300 | 100 to 300 | 100 to 300 | 1 to 20 | C[C@@H](Oc1ccc2[nH]nc(-c3cnc(N4CCC4)c(C#N)c3)c2c1)c1c(Cl)cnnc1Cl [Example 361, (R)-2-(azetidin-1-yl)-5-(5-(1-(3,5-dichloropyridazin-4-yl)ethoxy)-1H-indazol-3-yl)nicotinonitrile]
> 300 | > 300 | 100 to 300 | 100 to 300 | 20 to 100 | C[C@@H](Oc1cc2c(-c3cnc(N4CC[C@@H]4C)c(C#N)c3)n[nH]c2cc1Cl)c1c(Cl)cncc1Cl [Example 365, 5-(6-chloro-5-((R)-1-(3,5-dichloropyridin-4-yl)ethoxy)-1H-indazol-3-yl)-2-((S)-2-methylazetidin-1-yl)nicotinonitrile]
> 300 | > 300 | 20 to 100 | 100 to 300 | 20 to 100 | COc1cc2[nH]nc(-c3cnc(N4CCC4)c(S(C)(=O)=O)c3)c2cc1O[C@H](C)c1c(Cl)cncc1Cl [Example 367, (R)-3-(6-(azetidin-1-yl)-5-(methylsulfonyl)pyridin-3-yl)-5-(1-(3,5-dichloropyridin-4-yl)ethoxy)-6-methoxy-1H-indazole]
